Reference: patent US9493478B2, “Fused ring compound containing furan or salt thereof and pharmaceutical composition comprising same” (YUHAN CORPORATION, priority 2012, dated 2016)

Columns and labels:
Assay type in all cases: biochemical
PI3Kγ (p120γ)(h) = PI3Kγ (p120γ)(h) (Homo sapiens, UniProt P48736); test: Assay for phosphatidylinositol 3-kinase gamma (PI3Kγ) activity, PI3K-HTRF kit; settings: TR-FRET; enzyme 1.45 μg/ml, 10 μM PIP2, 10 μM ATP
Protocol: (§1) The compounds of the present invention were assayed for the activity of phosphatidylinositol 3-kinase gamma (PI3Kγ) by using a PI3K enzyme-homogenous time resolved fluorescence (PI3K-HTRF) kit, which is available from Upstate (Millipore Co, Billerica, Mass., USA).
(§2) Three kinds of buffer solutions including a phosphorylation reaction solution (a reaction buffer containing 40 mM MgCl2 which is available from Upstate was diluted 4 times and added with 5 mM DTT), a stop solution (STOP A and B solutions which are available from Upstate were mixed at a ratio of 3:1) and a fluorescence detection solution (Detection solutions A, B and C which are available from Upstate were mixed at a ratio of 1:1:18) were prepared. 1 mM of PIP2 substrate (phosphatidylinositol 4,5 biphosphate; Upstate), PI3Kγ (#14-558; Upstate) enzyme and 10 mM ATP (Sigma Aldrich Co., St. Louis, Mo., USA) were prepared. Each of PI3Kγ, 1 mM PIP2 and 10 mM ATP was diluted to 2.9 μg/ml (final reaction concentration: 1.45 μg/ml), 20 μM (final reaction concentration: 10 μM) and 40 μM (final reaction concentration: 10 μM), respectively. The buffer solution used for dilution and preparation process was the phosphorylation reaction solution. The stop solution was used for the termination of phosphorylation reaction, and the fluorescence detection solution was used for the detection of time-resolved fluorescence signals.
(§3) Each test sample was transferred to a 384 well low flange white flat bottom microplate (#3572, Corning Life Sciences, Lowell, Mass., USA) by using a multi 8-channel (Pipetman Neo multi 8×20, Gilson, Middleton, Wis., USA) to make a final phosphorylation reaction volume of 20 μl per each well. For the negative control, 5 μl of 14.4% DMSO and 10 μl of PIP2 substration solution were used, and 5 μl of 14.4% DMSO and 10 μl of PIP2/PI3Kγ mixed solution were used as the positive control. For the test group, 5 μl of a solution prepared by dissolving the compound obtained in Example in DMSO and 10 μl of PIP2/PI3Kγ mixed solution were used. Before the initiation of the phosphorylation reaction, sample compounds were pretreated with the enzyme for approximately 10 minutes, and then the phosphorylation reaction was induced by adding 5 μl of ATP. Since each of the test compound and ATP takes up 25% of the total volume, and PIP2 and PI3Kγ take up 50% of the total volume during the reaction, each solution was concentrated 4 and 2 times, respectively, before mixing the solutions. Subsequently, the test sample was gently shook for 3 minutes and subjected to a phosphorylation reaction for 90 minutes at room temperature, which was then added with 5 μl of the stop solution to terminate the phosphorylation reaction. In order to induce a time-resolved fluorescence reaction, 5 μl of the fluorescence detection solution was added to the sample. The fluorescence detection solution contains biotin-phosphatidylinositol 3,4,5-triphosphate (PIP3), streptavidin-labeled Allopycocyanin (APC) and europium-labeled Pleckstrin homology domain (the PIP3 binds to PH domain), and the time-resolved fluorescence reaction is induced by a series of reaction of PH domain and PIP3, and biotin and streptavidin. The sample was left to stand for 6 hours at room temperature, and the time-resolved fluorescence resonance energy transfer (TR-FRET) rate was measured (emission wavelength: 665 nm, 620 nm, excitation wavelength: 340 nm) by using a Flexstation3 Micro plate reader (Molecular Devices, USA). TR-FRET Rate and TR-Inhibition Rate were calculated based on Equations 1 and 2 below, and the results are expressed in IC50, which is the concentration of a compound that inhibits 50% of PI3Kγ activity in vitro. TR-FRET Rate=(665 nm emission wavelength/620 nm emission wavelength)×10000 <Equation 1> TR-FRET Inhibition Rate=[(TR-FRET Rate of Sample−TR-FRET Rate of Negative Control)/(TR-FRET Rate of Positive Control−TR-FRET Rate of Negative Control)]×100 <Equation 2>

PI3Kα (p110α/p85α)(h) = PI3Kα (p110α/p85α)(h) (Homo sapiens, UniProt P42336); test: Assay for phosphatidylinositol 3-kinase alpha (PI3Kα) activity, PI3K-HTRF kit; settings: TR-FRET; enzyme 0.3625 μg/ml, 10 μM PIP2, 10 μM ATP
Protocol: [The source words this procedure for another target and says it was used here with some conditions changed.] as §1, §2, §3

PI3Kδ (p110δ/p85α)(h) = PI3Kδ (p110δ/p85α)(h) (Homo sapiens, UniProt O00329); test: Assay for phosphatidylinositol 3-kinase delta (PI3Kδ) activity, PI3K-HTRF kit; settings: TR-FRET; enzyme 0.725 μg/ml, 10 μM PIP2, 10 μM ATP
Protocol: [The source words this procedure for another target and says it was used here with some conditions changed.] as §1, §2
as §3, with “2> […]” for “2>”

PI3K β (p110β/p85α)(h) = PI3K β (p110β/p85α)(h) (Homo sapiens, UniProt P42338); test: Assay for phosphatidylinositol 3-kinase beta (PI3Kβ) activity, PI3K-HTRF kit; settings: TR-FRET; enzyme 0.725 μg/ml, 10 μM PIP2, 10 μM ATP
Protocol: [The source words this procedure for another target and says it was used here with some conditions changed.] as §1, §2
as §3, with “2> […]” for “2>”

Chain of PI3K β (p110β/p85α)(h) (P42338 whole entry): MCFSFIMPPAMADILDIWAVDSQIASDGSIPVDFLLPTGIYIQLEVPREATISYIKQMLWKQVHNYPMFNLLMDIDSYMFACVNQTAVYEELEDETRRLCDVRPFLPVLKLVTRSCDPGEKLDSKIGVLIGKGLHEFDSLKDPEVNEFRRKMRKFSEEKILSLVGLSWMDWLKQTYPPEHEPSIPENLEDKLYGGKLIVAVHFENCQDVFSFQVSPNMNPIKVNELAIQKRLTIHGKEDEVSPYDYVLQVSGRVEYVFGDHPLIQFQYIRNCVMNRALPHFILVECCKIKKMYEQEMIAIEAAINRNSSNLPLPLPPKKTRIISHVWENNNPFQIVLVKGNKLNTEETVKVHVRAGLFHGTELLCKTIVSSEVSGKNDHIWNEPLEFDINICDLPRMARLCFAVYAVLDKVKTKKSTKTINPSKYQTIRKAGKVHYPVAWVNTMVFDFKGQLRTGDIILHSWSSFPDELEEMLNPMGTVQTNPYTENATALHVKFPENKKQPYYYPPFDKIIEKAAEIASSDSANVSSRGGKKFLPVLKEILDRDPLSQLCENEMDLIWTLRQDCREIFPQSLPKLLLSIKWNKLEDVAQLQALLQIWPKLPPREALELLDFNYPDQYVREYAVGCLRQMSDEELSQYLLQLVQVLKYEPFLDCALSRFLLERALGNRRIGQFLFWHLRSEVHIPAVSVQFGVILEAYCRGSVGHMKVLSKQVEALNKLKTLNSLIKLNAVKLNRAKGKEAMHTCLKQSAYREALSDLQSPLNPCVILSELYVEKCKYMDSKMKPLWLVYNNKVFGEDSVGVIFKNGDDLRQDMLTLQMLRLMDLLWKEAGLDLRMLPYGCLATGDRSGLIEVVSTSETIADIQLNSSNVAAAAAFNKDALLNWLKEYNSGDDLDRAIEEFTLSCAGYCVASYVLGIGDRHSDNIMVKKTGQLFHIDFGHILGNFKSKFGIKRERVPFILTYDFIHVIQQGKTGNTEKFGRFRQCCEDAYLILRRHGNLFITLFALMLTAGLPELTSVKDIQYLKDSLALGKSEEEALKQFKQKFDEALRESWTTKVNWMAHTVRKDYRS
Chain of PI3K β (p110β/p85α)(h) (P27986 whole entry partner): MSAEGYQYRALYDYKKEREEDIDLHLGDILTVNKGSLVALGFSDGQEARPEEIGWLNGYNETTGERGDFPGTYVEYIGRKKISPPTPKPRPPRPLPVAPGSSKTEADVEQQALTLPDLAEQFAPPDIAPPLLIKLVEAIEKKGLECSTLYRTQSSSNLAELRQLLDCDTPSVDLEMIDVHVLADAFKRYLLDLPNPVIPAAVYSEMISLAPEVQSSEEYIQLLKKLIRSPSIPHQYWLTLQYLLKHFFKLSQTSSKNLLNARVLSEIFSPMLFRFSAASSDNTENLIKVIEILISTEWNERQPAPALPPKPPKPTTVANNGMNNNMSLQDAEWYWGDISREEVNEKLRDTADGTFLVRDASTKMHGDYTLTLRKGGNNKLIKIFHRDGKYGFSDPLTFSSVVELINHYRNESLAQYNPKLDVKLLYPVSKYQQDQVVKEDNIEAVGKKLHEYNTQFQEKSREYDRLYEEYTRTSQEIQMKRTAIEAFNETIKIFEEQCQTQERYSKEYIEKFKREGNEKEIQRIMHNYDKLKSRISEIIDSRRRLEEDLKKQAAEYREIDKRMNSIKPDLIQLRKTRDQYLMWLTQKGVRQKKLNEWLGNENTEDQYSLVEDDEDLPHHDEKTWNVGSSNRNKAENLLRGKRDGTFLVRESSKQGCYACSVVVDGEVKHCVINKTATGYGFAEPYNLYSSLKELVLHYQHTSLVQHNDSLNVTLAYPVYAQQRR
Chain of PI3Kδ (p110δ/p85α)(h) (O00329 whole entry): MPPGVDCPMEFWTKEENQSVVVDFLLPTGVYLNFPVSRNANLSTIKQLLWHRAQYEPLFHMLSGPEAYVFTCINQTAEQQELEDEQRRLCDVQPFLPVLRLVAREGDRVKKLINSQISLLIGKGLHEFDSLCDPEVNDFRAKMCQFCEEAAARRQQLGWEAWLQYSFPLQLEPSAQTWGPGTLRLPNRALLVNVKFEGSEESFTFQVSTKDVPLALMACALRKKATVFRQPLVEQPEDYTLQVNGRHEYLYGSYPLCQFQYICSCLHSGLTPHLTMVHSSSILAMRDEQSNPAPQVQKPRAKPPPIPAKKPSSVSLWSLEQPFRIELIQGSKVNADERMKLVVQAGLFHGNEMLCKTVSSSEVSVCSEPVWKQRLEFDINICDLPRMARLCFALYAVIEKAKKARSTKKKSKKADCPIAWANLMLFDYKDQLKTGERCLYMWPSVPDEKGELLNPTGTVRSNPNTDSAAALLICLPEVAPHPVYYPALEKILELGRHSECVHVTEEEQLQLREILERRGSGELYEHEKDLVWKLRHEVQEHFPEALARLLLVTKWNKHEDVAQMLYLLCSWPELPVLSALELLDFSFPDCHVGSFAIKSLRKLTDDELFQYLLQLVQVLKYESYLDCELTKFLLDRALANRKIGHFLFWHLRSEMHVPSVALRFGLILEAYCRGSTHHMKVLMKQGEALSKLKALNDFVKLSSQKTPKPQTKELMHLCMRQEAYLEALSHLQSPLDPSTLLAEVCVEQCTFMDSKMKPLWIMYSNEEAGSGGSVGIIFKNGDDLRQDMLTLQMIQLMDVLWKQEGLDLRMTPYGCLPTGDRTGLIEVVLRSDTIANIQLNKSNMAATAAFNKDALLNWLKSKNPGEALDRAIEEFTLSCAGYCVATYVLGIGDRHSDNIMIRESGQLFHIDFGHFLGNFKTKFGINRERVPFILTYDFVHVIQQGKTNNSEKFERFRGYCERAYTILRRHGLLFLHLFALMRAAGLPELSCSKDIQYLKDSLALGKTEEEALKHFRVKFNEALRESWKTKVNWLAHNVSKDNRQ
Chain of PI3Kδ (p110δ/p85α)(h) (P27986 whole entry partner): as the sequence (P27986 whole entry partner) above
Chain of PI3Kα (p110α/p85α)(h) (P42336 whole entry): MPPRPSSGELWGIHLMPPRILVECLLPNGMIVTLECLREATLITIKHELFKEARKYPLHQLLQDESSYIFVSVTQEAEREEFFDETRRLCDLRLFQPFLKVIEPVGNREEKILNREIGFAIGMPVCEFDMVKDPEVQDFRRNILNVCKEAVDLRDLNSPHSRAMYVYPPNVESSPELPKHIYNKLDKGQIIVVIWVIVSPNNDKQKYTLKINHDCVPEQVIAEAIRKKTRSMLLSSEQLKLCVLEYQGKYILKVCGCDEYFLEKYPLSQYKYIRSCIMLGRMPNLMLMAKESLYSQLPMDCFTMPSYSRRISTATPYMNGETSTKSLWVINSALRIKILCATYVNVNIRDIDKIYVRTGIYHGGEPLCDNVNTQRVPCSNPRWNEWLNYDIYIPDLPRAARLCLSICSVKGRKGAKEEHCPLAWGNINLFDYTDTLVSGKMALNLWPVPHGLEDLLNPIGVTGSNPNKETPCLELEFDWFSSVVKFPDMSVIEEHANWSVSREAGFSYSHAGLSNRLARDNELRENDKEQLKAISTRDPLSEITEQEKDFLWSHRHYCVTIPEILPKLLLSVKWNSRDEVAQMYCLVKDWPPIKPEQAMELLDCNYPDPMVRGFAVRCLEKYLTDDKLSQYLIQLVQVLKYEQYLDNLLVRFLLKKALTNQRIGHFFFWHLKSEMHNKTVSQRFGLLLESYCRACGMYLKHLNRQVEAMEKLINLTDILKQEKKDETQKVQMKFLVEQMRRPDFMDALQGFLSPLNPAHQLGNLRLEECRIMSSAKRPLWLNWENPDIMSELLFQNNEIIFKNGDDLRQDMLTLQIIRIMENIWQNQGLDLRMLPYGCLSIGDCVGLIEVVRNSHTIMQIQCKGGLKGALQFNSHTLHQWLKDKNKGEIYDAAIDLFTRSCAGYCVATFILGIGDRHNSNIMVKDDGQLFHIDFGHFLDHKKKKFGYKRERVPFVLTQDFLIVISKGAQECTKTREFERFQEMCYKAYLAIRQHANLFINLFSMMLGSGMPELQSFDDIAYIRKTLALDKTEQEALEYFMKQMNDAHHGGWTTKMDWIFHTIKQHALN
Chain of PI3Kα (p110α/p85α)(h) (P27986 whole entry partner): as the sequence (P27986 whole entry partner) above
Chain of PI3Kγ (p120γ)(h) (P48736 whole entry): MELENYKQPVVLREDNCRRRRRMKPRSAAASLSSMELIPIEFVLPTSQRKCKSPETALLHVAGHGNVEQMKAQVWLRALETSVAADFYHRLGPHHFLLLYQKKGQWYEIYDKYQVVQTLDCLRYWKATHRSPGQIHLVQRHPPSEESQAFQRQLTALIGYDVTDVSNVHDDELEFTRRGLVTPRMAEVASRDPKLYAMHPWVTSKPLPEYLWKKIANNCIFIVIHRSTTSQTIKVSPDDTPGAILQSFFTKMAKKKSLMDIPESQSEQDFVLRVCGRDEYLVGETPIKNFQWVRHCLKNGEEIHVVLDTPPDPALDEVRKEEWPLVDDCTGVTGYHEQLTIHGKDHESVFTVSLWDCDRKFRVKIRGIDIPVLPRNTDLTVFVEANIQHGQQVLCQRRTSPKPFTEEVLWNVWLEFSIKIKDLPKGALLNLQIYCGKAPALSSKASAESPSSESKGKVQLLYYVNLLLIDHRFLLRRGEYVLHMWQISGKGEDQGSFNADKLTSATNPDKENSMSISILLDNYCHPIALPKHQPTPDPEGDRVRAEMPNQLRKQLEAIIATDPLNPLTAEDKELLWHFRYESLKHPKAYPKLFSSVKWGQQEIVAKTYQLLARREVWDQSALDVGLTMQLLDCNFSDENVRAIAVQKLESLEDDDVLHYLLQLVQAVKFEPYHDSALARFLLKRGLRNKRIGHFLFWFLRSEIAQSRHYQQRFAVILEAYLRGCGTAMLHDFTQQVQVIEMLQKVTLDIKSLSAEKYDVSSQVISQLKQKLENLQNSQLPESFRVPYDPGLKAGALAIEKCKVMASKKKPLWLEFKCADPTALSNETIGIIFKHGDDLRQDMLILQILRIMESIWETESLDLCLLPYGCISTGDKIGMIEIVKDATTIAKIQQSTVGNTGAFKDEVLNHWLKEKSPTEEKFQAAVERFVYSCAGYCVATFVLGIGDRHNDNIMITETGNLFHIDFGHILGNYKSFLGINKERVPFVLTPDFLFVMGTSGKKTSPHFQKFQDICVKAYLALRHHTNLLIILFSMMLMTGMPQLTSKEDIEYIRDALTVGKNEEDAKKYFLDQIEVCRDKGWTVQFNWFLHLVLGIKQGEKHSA

Compound | IC50 (PI3Kγ (p120γ)(h)) [nM] | IC50 (PI3Kα (p110α/p85α)(h)) [nM] | IC50 (PI3Kδ (p110δ/p85α)(h)) [nM] | IC50 (PI3K β (p110β/p85α)(h)) [nM]
COc1ccc(C#Cc2cncc3cc(/C=C4\SC(=S)NC4=O)oc23)cc1OC [Example 512, (Z)-5-([7-{(3,4-Dimethoxyphenyl)ethynyl}furo[3,2-c]pyridin-2-yl]methylene)-2-thioxothiazolidin-4-one] | 17 | 2 | 73 | 82
CC(C)NS(=O)(=O)c1c(Cl)cc(-c2cncc3cc(/C=C4\SC(=S)NC4=O)oc23)cc1Cl [Example 345, (Z)-2,6-Dichloro-N-isopropyl-4-[2-{(4-oxo-2-thioxothiazolidin-5-ylidene)methyl}furo[3,2-c]pyridin-7-yl]benzenesulfonamide] | 4 | 11 | 89 | 3860
O=C1NC(=S)S/C1=C\c1cc2cncc(C#Cc3ccsc3)c2o1 [Example 555, (Z)-5-[{7-(Thiophen-3-ylethynyl)furo[3,2-c]pyridin-2-yl}methylene]-2-thioxothiazolidin-4-one] | 18 | 5 | 120 | 3470
Nc1ccc(-c2cncc3cc(/C=C4\SC(=S)NC4=O)oc23)cc1C(F)(F)F [Example 361, (Z)-5-([7-{4-Amino-3-(trifluoromethyl)phenyl}furo[3,2-c]pyridin-2-yl]methylene)-2-thioxothiazolidin-4-one] | 10 | 41 | 924 | 1430
Cc1cc(-c2cncc3cc(/C=C4\SC(=S)NC4=O)oc23)cnc1F [Example 195, (Z)-5-[7-(6-Fluoro-5-methylpyridin-3-yl)-furo[3,2-c]pyridin-2-ylmethylene]-2-thioxothiazolidin-4-one] | 3 | 2 | 1900 | 156
COc1ccccc1NC(=O)c1cncc2cc(/C=C3\SC(=O)NC3=O)oc12 [Example 412, (Z)-2-{(2,4-Dioxothiazolidin-5-ylidene)methyl}-N-(2-methoxyphenyl)furo[3,2-c]pyridine-7-carboxamide] | 182 | 17 | 205 | 869
2-Thioxo-5-[{7-(m-tolylethynyl)furo[3,2-c]pyridin-2-yl}methyl]thiazolidin-4-one [Example 546] | 3 | 360 | > 10000 | 5500
O=C1NC(=O)/C(=C/c2cc3cncc(-c4ccc(F)cc4F)c3o2)S1 [Example 2, (Z)-5-[{7-(2,4-Difluorophenyl)furo[3,2-c]pyridin-2-yl}methylene]thiazolidine-2,4-dione] | 654 | 35 | 117 | 208
COc1ncc(-c2cncc3cc(/C=C4\SC(=S)NC4=O)oc23)cc1C [Example 225, (Z)-5-[{7-(6-Methoxy-5-methylpyridin-3-yl)furo[3,2-c]pyridin-2-yl}methylene]-2-thioxothiazolidin-4-one] | 43 | 4 | > 10000 | > 10000
COC(=O)c1cccc(C#Cc2cncc3cc(/C=C4\SC(=O)NC4=O)oc23)c1 [Example 542, (Z)-Methyl 3-([2-{(2,4-dioxothiazolidin-5-ylidene)methyl}furo[3,2-c]pyridin-7-yl]ethynyl)benzoate] | 24 | 3 | 1270 | > 10000
CNS(=O)(=O)c1ccc(-c2cncc3cc(/C=C4\SC(=O)NC4=O)oc23)cc1F [Example 279, (Z)-4-[2-{(2,4-Dioxothiazolidin-5-ylidene)methyl}furo[3,2-c]pyridin-7-yl]-2-fluoro-N-methylbenzenesulfonamide] | 17 | 40 | 747 | 480
CC(C)c1ccccc1C#Cc1cncc2cc(/C=C3\SC(=S)NC3=O)oc12 [Example 554, (Z)-5-([7-{(2-Isopropylphenyl)ethynyl}furo[3,2-c]pyridin-2-yl]methylene)-2-thioxothiazolidin-4-one] | 78 | 67 | > 10000 | 8620
O=C1NC(=O)/C(=C/c2cc3cncc(-c4ccc(O)nc4)c3o2)S1 [Example 11, (Z)-5-[{7-(6-Hydroxypyridin-3-yl)furo[3,2-c]pyridin-2-yl}methylene]thiazolidine-2,4-dione] | 15 | 8 | 168 | 48
CS(=O)(=O)c1c(F)cc(-c2cncc3cc(/C=C4\SC(=S)NC4=O)oc23)cc1F [Example 332, (Z)-5-([7-{3,5-Difluoro-4-(methylsulfonyl)phenyl}furo[3,2-c]pyridin-2-yl]methylene)-2-thioxothiazolidin-4-one] | 19 | 10 | 9300 | > 10000
O=C1NC(=O)/C(=C/c2cc3cncc(-c4cccc(OCc5ccccc5)c4)c3o2)S1 [Example 6, (Z)-5-([7-{3-(Benzyloxy)phenyl}furo[3,2-c]pyridin-2-yl]methylene)thiazolidine-2,4-dione] | 14 | 2 | 2350 | 3
COc1ccc(-c2cncc3cc(/C=C4\SC(=O)NC4=O)oc23)cn1 [Example 30, (Z)-5-[{7-(6-Methoxypyridin-3-yl)furo[3,2-c]pyridin-2-yl}methylene]thiazolidine-2,4-dione] | 6 | 40 | 460 | 1370
